Measurements published in PubChem BioAssay AID250 (DTP/NCI, 2004).
Values joined by “and” are separate entries in the source; they are usually repeats but may differ in a detail not shown here. Identical values can stand only once. Inconclusive results and toxic doses are left out. The calls were made as follows: active = survival T/C of 150% or more; inactive = T/C below 125% in these data.

System: BDF1 mice, L1210 leukemia sc, survival T/C
Experiment: NCI In Vivo Anticancer Drug Screen. Data for tumor model L1210 Leukemia (subcutaneous) in B6D2F1 (BDF1) mice
Settings: higher = longer survival
Experimental: The antitumor activity of compounds was measured in mice bearing transplantable tumors. Survival or tumor size were measured and the results are expressed as the measurement made in the treated group (T) divided by the measurement made in the vehicle treated control group (C). The tumor model used in this assay is L1210 Leukemia (subcutaneous) in B6D2F1 (BDF1) mice

[1] = endpoint: median survival time, dose: 39.0 mg/kg/injection, schedule: Q01DX Z (sc), vehicle: saline
[2] = endpoint: median survival time, dose: 65.0 mg/kg/injection, schedule: Q01DX Z (sc), vehicle: saline
[3] = endpoint: median survival time, dose: 108.0 mg/kg/injection, schedule: Q01DX Z (sc), vehicle: saline
[4] = endpoint: median survival time, dose: 180.0 mg/kg/injection, schedule: Q01DX Z (sc), vehicle: saline
[5] = endpoint: median survival time, dose: 300.0 mg/kg/injection, schedule: Q01DX Z (sc), vehicle: saline
[6] = endpoint: median survival time, dose: 500.0 mg/kg/injection, schedule: Q01DX Z (sc), vehicle: saline

Measured: T/C

CCCn1cnc2c(=S)nc(N)[nH]c21
active: endpoint: median survival time, dose: 8.4 mg/kg/injection, schedule: Q01DX Z (sc), vehicle: other 155 % of control | endpoint: median survival time, dose: 14.0 mg/kg/injection, schedule: Q01DX Z (sc), vehicle: other 161 % of control | endpoint: median survival time, dose: 230.0 mg/kg/injection, schedule: Q01DX Z (sc), vehicle: other 155 % of control | endpoint: median survival time, dose: 390.0 mg/kg/injection, schedule: Q01DX Z (sc), vehicle: other 150 % of control
inactive: endpoint: median survival time, dose: 0.65 mg/kg/injection, schedule: Q01DX Z (sc), vehicle: methylcellulose (MC) 100 % of control | endpoint: median survival time, dose: 0.65 mg/kg/injection, schedule: Q01DX Z (sc), vehicle: other 100 % of control | endpoint: median survival time, dose: 1.08 mg/kg/injection, schedule: Q01DX Z (sc), vehicle: methylcellulose (MC) 100 % of control | endpoint: median survival time, dose: 1.08 mg/kg/injection, schedule: Q01DX Z (sc), vehicle: other 100 % of control | endpoint: median survival time, dose: 1.8 mg/kg/injection, schedule: Q01DX Z (sc), vehicle: methylcellulose (MC) 100 % of control | endpoint: median survival time, dose: 1.8 mg/kg/injection, schedule: Q01DX Z (sc), vehicle: other 105 % of control | endpoint: median survival time, dose: 3.0 mg/kg/injection, schedule: Q01DX Z (sc), vehicle: methylcellulose (MC) 111 % of control | endpoint: median survival time, dose: 3.0 mg/kg/injection, schedule: Q01DX Z (sc), vehicle: other 111 % of control | endpoint: median survival time, dose: 5.0 mg/kg/injection, schedule: Q01DX Z (sc), vehicle: methylcellulose (MC) 111 % of control | endpoint: median survival time, dose: 5.0 mg/kg/injection, schedule: Q01DX Z (sc), vehicle: other 122 % of control | endpoint: median survival time, dose: 8.4 mg/kg/injection, schedule: Q01DX Z (sc), vehicle: methylcellulose (MC) 122 % of control

CC(C)CN(N)C(N)=O
inactive: endpoint: median survival time, dose: 78.0 mg/kg/injection, schedule: Q01DX Z (sc), vehicle: saline 100 % of control | endpoint: median survival time, dose: 130.0 mg/kg/injection, schedule: Q01DX Z (sc), vehicle: saline 100 % of control | endpoint: median survival time, dose: 216.0 mg/kg/injection, schedule: Q01DX Z (sc), vehicle: saline 100 % of control | endpoint: median survival time, dose: 360.0 mg/kg/injection, schedule: Q01DX Z (sc), vehicle: saline 111 % of control | endpoint: median survival time, dose: 600.0 mg/kg/injection, schedule: Q01DX Z (sc), vehicle: saline 111 % of control

CN(N=O)C(=O)NC(C=O)C(O)C(O)C(O)CO (stereo unspecified)
inactive: [1] 100 % of control | [2] 112 % of control | [3] 100 % of control | [4] 112 % of control | [5] 112 % of control | [6] 100 % of control

CS(=O)(=O)Nc1ccc(Nc2c3ccccc3nc3ccccc23)cc1
inactive: endpoint: mean survival time, dose: 10.0 mg/kg/injection, schedule: Q01DX009 (ip), vehicle: saline 96 % of control | endpoint: mean survival time, dose: 20.0 mg/kg/injection, schedule: Q01DX009 (ip), vehicle: saline 103 % of control | endpoint: mean survival time, dose: 40.0 mg/kg/injection, schedule: Q01DX009 (ip), vehicle: saline 111 % of control | endpoint: mean survival time, dose: 80.0 mg/kg/injection, schedule: Q01DX009 (ip), vehicle: saline 90 % of control

O=c1cnn(C2OC(CO)C(O)C2O)c(=O)[nH]1 (stereo unspecified)
inactive: endpoint: median survival time, dose: 37.5 mg/kg/injection, schedule: Q01DX009 (ip), vehicle: water 114 % of control | endpoint: median survival time, dose: 75.0 mg/kg/injection, schedule: Q01DX009 (ip), vehicle: water 118 % of control and 121 % of control | endpoint: median survival time, dose: 75.0 mg/kg/injection, schedule: Q01DX009 (sc), vehicle: water 120 % of control | endpoint: median survival time, dose: 108.0 mg/kg/injection, schedule: Q01DX Z (sc), vehicle: other 120 % of control | endpoint: median survival time, dose: 150.0 mg/kg/injection, schedule: Q01DX009 (ip), vehicle: water 117 % of control and 120 % of control | endpoint: median survival time, dose: 150.0 mg/kg/injection, schedule: Q01DX009 (sc), vehicle: water 121 % of control and 122 % of control | endpoint: median survival time, dose: 180.0 mg/kg/injection, schedule: Q01DX Z (sc), vehicle: other 120 % of control | endpoint: median survival time, dose: 300.0 mg/kg/injection, schedule: Q01DX009 (ip), vehicle: water 117 % of control and 123 % of control | endpoint: median survival time, dose: 300.0 mg/kg/injection, schedule: Q01DX009 (sc), vehicle: water 117 % of control and 122 % of control | endpoint: median survival time, dose: 300.0 mg/kg/injection, schedule: Q01DX Z (sc), vehicle: other 120 % of control | endpoint: median survival time, dose: 500.0 mg/kg/injection, schedule: Q01DX Z (sc), vehicle: other 120 % of control | endpoint: median survival time, dose: 600.0 mg/kg/injection, schedule: Q01DX009 (ip), vehicle: water 118 % of control | endpoint: median survival time, dose: 600.0 mg/kg/injection, schedule: Q01DX009 (sc), vehicle: water 117 % of control | endpoint: median survival time, dose: 833.0 mg/kg/injection, schedule: Q01DX Z (sc), vehicle: other 110 % of control | endpoint: median survival time, dose: 1000.0 mg/kg/injection, schedule: Q01DX Z (sc), vehicle: other 122 % of control | endpoint: median survival time, dose: 1200.0 mg/kg/injection, schedule: Q01DX009 (ip), vehicle: water 104 % of control and 117 % of control | endpoint: median survival time, dose: 1200.0 mg/kg/injection, schedule: Q01DX009 (sc), vehicle: water 114 % of control

O=C(O)c1cc(=O)[nH]c(=O)[nH]1
inactive: [2] 100 % of control | [4] 100 % of control | [5] 100 % of control

CS(=O)(=O)OCC(O)C(O)COS(C)(=O)=O (stereo unspecified)
inactive: [1] 95 % of control | [2] 91 % of control | [3] 91 % of control | [4] 91 % of control | [5] 100 % of control

COc1cc2c3c(c4ccc(OC)c(OC)c4c2cc1OC)CN1CCC[C@@H]1C3
inactive: endpoint: median survival time, dose: 3.0 mg/kg/injection, schedule: Q01DX Z (sc), vehicle: carboxymethylcellulose (CMC) 100 % of control | endpoint: median survival time, dose: 5.0 mg/kg/injection, schedule: Q01DX Z (sc), vehicle: carboxymethylcellulose (CMC) 100 % of control | endpoint: median survival time, dose: 8.4 mg/kg/injection, schedule: Q01DX Z (sc), vehicle: carboxymethylcellulose (CMC) 100 % of control | endpoint: median survival time, dose: 14.0 mg/kg/injection, schedule: Q01DX Z (sc), vehicle: carboxymethylcellulose (CMC) 95 % of control | endpoint: median survival time, dose: 23.0 mg/kg/injection, schedule: Q01DX Z (sc), vehicle: carboxymethylcellulose (CMC) 90 % of control and 105 % of control | endpoint: median survival time, dose: 39.0 mg/kg/injection, schedule: Q01DX Z (sc), vehicle: carboxymethylcellulose (CMC) 100 % of control | endpoint: median survival time, dose: 65.0 mg/kg/injection, schedule: Q01DX Z (sc), vehicle: carboxymethylcellulose (CMC) 110 % of control | endpoint: median survival time, dose: 108.0 mg/kg/injection, schedule: Q01DX Z (sc), vehicle: carboxymethylcellulose (CMC) 105 % of control | endpoint: median survival time, dose: 180.0 mg/kg/injection, schedule: Q01DX Z (sc), vehicle: carboxymethylcellulose (CMC) 115 % of control

O=c1[nH]c(=O)n(C2OC(CO)C(O)C2O)cc1Br (stereo unspecified)
inactive: [1] 100 % of control | [2] 100 % of control | [3] 100 % of control | [4] 94 % of control and 100 % of control | [5] 100 % of control and 105 % of control | [6] 94 % of control and 100 % of control | endpoint: median survival time, dose: 833.0 mg/kg/injection, schedule: Q01DX Z (sc), vehicle: saline 105 % of control | endpoint: median survival time, dose: 1388.0 mg/kg/injection, schedule: Q01DX Z (sc), vehicle: saline 94 % of control

CCN(O)C(N)=O
inactive: endpoint: median survival time, dose: 1.0 mg/kg/injection, schedule: Q01DX Z (sc), vehicle: methylcellulose (MC) 95 % of control | endpoint: median survival time, dose: 2.0 mg/kg/injection, schedule: Q01DX Z (sc), vehicle: methylcellulose (MC) 104 % of control | endpoint: median survival time, dose: 4.0 mg/kg/injection, schedule: Q01DX Z (sc), vehicle: methylcellulose (MC) 91 % of control | endpoint: median survival time, dose: 8.0 mg/kg/injection, schedule: Q01DX Z (sc), vehicle: methylcellulose (MC) 100 % of control | endpoint: median survival time, dose: 16.0 mg/kg/injection, schedule: Q01DX Z (sc), vehicle: methylcellulose (MC) 100 % of control | endpoint: median survival time, dose: 31.0 mg/kg/injection, schedule: Q01DX Z (sc), vehicle: methylcellulose (MC) 100 % of control | endpoint: median survival time, dose: 62.0 mg/kg/injection, schedule: Q01DX Z (sc), vehicle: methylcellulose (MC) 100 % of control | endpoint: median survival time, dose: 125.0 mg/kg/injection, schedule: Q01DX Z (sc), vehicle: methylcellulose (MC) 100 % of control | endpoint: median survival time, dose: 250.0 mg/kg/injection, schedule: Q01DX Z (sc), vehicle: methylcellulose (MC) 112 % of control
